The data set relates to Wakin goldfish. Put plainly: Toxicity to fish, plant waste water test method (JIS-K-0102-1964). The format is in vivo. As for the experimental part:
The test was carried out according to plant waste water test method (JIS-K-0102-1964). Wakin goldfish was used as the subject.
*A concentration at which half the number of the subjects died within 48
hours. The higher the number of ppm., the lower the toxicity to fish.

On to Benzalkonium chloride, for which the “TLM (concentration at which half the number of the subjects died within 48 hours)” value was found to be 0.87 ppm.

The values above are taken from patent US3932492A, “Process for preparing new amidine compounds” (Kao Soap Co., Ltd., priority 1973, dated 1976).
